Reference: patent US20150231162A1, “FRUCTOSE ABSORPTION INHIBITOR” (Nagaoka Perfumery Co., Ltd., priority 2011, published 2015)

What follows are molecules tested on human colon carcinoma cell line, Caco-2 (assay: Fructose absorption inhibitory activity in the intestinal tracts (fructose permeation across a Caco-2 monolayer in Transwell inserts)). Conditions: Dosage 5 μg/ml; 50 mM fructose, 3 h, Caco-2 Transwell.
Format: cell-based
Protocol: Evaluation of fructose absorption inhibitory activity was carried out using the human colon carcinoma cell line, Caco-2 (manufactured by Dainippon Sumitomo Pharma Co., Ltd.) utilized for model experiments of the small intestinal mucosa. […] Caco-2 cells were seeded in a 6-well Transwell Insert (internal area: 4.2 cm2) and subcultured for around 3 weeks, while DMEM medium was replaced once every 3 to 4 days, until the Caco-2 cell density became around 2×10^5 cells/insert. The TEER value was measured before experiments and the state of Caco-2 cells was confirmed. […] Medium in the 6-well Transwell Insert was removed. […] A sample solution of each sample illustrated in Table 1 was added to the insert and each mixture was preincubated for 5 min. […] The TEER values were measured. […] The measurement was carried out three times for each sample illustrated in Table 1. The fructose concentrations of the permeated solutions were measured by an enzymatic method using D-fructose dehydrogenase (derived from Gluconobac sp.) (The concentration of each reagent represents the final concentration, respectively.). […] The fructose absorption inhibitory rate of each compound was determined using the following formula (I). […] As control, measurement was also carried out for gallic acid, ellagic acid, quercetin, (+)-catechin, (−)-epicatechin and (−)-epigallocatechin gallate.

Point of comparison: O=C(O[C@@H]1O[C@@H]2COC(=O)c3cc(O)c(O)c(O)c3-c3c(cc(O)c(O)c3O)C(=O)O[C@H]2[C@H](OC(=O)c2cc(O)c(O)c(O)c2)[C@H]1O)c1cc(O)c(O)c(O)c1 [compound 5, 1,3-di-O-galloyl-4,6-HHDP-β-D-glucose], “Inhibitory Rate” value 57%. Against it:
- O=C(O[C@H]1[C@@H]2OC(=O)c3cc(O)c(O)c(O)c3-c3c(cc(O)c(O)c3O)C(=O)OC[C@H]2OC(O)[C@@H]1OC(=O)c1cc(O)c(O)c(O)c1)c1cc(O)c(O)c(O)c1 (stereo partly shown) [compound 1, Tellimagrandin I] — lower, 49%
- O=C(O[C@H]1[C@@H]2OC(=O)c3cc(O)c(O)c(O)c3-c3c4cc(c(O)c3O)Oc3c(cc(O)c(O)c3O)C(=O)O[C@H]3C(O)O[C@@H]5COC(=O)c6cc(O)c(O)c(O)c6-c6c(cc(c(O)c6O)Oc6c(cc(O)c(O)c6O)C(=O)O[C@H]1C(O)O[C@@H]2COC4=O)C(=O)O[C@H]5[C@@H]3OC(=O)c1cc(O)c(O)c(O)c1)c1cc(O)c(O)c(O)c1 (stereo partly shown) [compound 7, Oenothein B] — higher, 63%
- (−)-epigallocatechin gallate [compound 16, reference compound] — lower, 28%
- Eugeniflorin D2 [compound 6] — lower, 53%

Same assay, conditions: Dosage 50 μg/ml; 50 mM fructose, 3 h, Caco-2 Transwell

In the case of Oc1cc(O)c2c(c1)O[C@H](c1ccc(O)c(O)c1)[C@@H](O)C2 [compound 14, (+)-catechin, reference compound], the “Inhibitory Rate” value is reported as <10%.
With Oc1cc(O)c2c(c1)O[C@H](c1ccc(O)c(O)c1)[C@H](O)C2 [compound 15, (−)-epicatechin, reference compound] the “Inhibitory Rate” value was <10%.

Same assay, conditions: Homo sapiens; Dosage 5 μg/ml; 50 mM fructose, 3 h, Caco-2 Transwell; read-out: Inhibitory Rate

Point of comparison: O=C(OC1O[C@@H]2COC(=O)c3cc(O)c(O)c(O)c3-c3c(cc(O)c(O)c3O)C(=O)O[C@H]2[C@H](OC(=O)c2cc(O)c(O)c(O)c2)[C@H]1OC(=O)c1cc(O)c(O)c(O)c1)c1cc(O)c(O)c(O)c1 (stereo partly shown) [compound 2, Tellimagrandin II], inhibition at 5 µg/mL 52%. Against it:
- O=C(O[C@@H]1O[C@@H]2COC(=O)c3cc(O)c(O)c(O)c3-c3c(cc(O)c(O)c3O)C(=O)O[C@H]2[C@H](O)[C@H]1O)c1cc(O)c(O)c(O)c1 [compound 3, Strictinin] — lower, 43%
- O=C(O[C@@H]1O[C@@H]2COC(=O)c3cc(O)c(O)c(O)c3-c3cc(c(O)c(O)c3O)C(=O)O[C@H]2[C@@H]2OC(=O)c3cc(O)c(O)c(O)c3-c3c(cc(O)c(O)c3O)C(=O)O[C@@H]12)c1cc(O)c(O)c(O)c1 [compound 4, Casuarictin] — lower, 46%

Same assay, conditions: Homo sapiens; Dosage 50 μg/ml; 50 mM fructose, 3 h, Caco-2 Transwell; read-out: Inhibitory Rate

Point of comparison: O=C(O)c1cc(O)c(O)c(O)c1 [compound 11, Gallic acid, reference compound], inhibition at 50 µg/mL 19%. Against it:
- O=c1oc2c(O)c(O)cc3c(=O)oc4c(O)c(O)cc1c4c23 [compound 12, Ellagic acid, reference compound] — higher, 22%
- O=c1c(O)c(-c2ccc(O)c(O)c2)oc2cc(O)cc(O)c12 [compound 13, Quercetin, reference compound] — higher, 23%
